Experimental data taken from PubChem BioAssay AID248 (DTP/NCI, 2004).
Several values for one entry are separate records, joined by “and”; a condition that tells them apart may be missing. Equal values may be shown once. Toxic doses and inconclusive results are not listed. Rule as the data show it: active = T/C of 150% or more; inactive = T/C below 125%.

Test system: L1210 leukemia ip in BDF1 mice, survival T/C
Assay: NCI In Vivo Anticancer Drug Screen. Data for tumor model L1210 Leukemia (intraperitoneal) in B6D2F1 (BDF1) mice
Details: endpoint: mean survival time, higher = longer survival
In short: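 Transplantable tumor model; survival measured in treated vs vehicle control mice. Value = treated/control.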

[1] = dose: 100.0 mg/kg/injection, schedule: Q04DX003 (ip), vehicle: saline
[2] = dose: 200.0 mg/kg/injection, schedule: Q04DX003 (ip), vehicle: saline
[3] = dose: 400.0 mg/kg/injection, schedule: Q04DX003 (ip), vehicle: saline
[4] = dose: 100.0 mg/kg/injection, schedule: Q01DX001 (ip), vehicle: carboxymethylcellulose (CMC)
[5] = dose: 200.0 mg/kg/injection, schedule: Q01DX001 (ip), vehicle: carboxymethylcellulose (CMC)
[6] = dose: 400.0 mg/kg/injection, schedule: Q01DX001 (ip), vehicle: carboxymethylcellulose (CMC)
[7] = dose: 100.0 mg/kg/injection, schedule: Q01DX001 (ip), vehicle: saline
[8] = dose: 200.0 mg/kg/injection, schedule: Q01DX001 (ip), vehicle: saline
[9] = dose: 400.0 mg/kg/injection, schedule: Q01DX001 (ip), vehicle: saline
[10] = dose: 12.5 mg/kg/injection, schedule: Q01DX009 (ip), vehicle: Klucel (hydroxypropylcellulose) (HPC)
[11] = dose: 25.0 mg/kg/injection, schedule: Q01DX009 (ip), vehicle: Klucel (hydroxypropylcellulose) (HPC)
[12] = dose: 100.0 mg/kg/injection, schedule: Q04DX002 (ip), vehicle: saline with Tween-80
[13] = dose: 200.0 mg/kg/injection, schedule: Q04DX002 (ip), vehicle: saline with Tween-80
[14] = dose: 100.0 mg/kg/injection, schedule: Q01DX009 (ip), vehicle: saline
[15] = dose: 200.0 mg/kg/injection, schedule: Q01DX009 (ip), vehicle: saline
[16] = dose: 100.0 mg/kg/injection, schedule: Q01DX009 (ip), vehicle: saline with Tween-80

Measured: T/C

CC(Br)C1(c2cccc([N+](=O)[O-])c2)OCCO1 (configuration not stated)
inactive: [1] 105 % of control | [2] 100 % of control | [3] 108 % of control

C=C(C1CC1)C1(CC)C(=O)NC(=S)NC1=O
inactive: dose: 75.0 mg/kg/injection, schedule: Q01DX001 (ip), vehicle: other 102 % of control | dose: 150.0 mg/kg/injection, schedule: Q01DX001 (ip), vehicle: other 113 % of control | dose: 300.0 mg/kg/injection, schedule: Q01DX001 (ip), vehicle: other 94 % of control

Cc1[nH]c(=O)ncc1CCOCc1ccccc1
inactive: [4] 104 % of control | [5] 109 % of control | [6] 104 % of control

CC(C)OC(=O)C(C)OC(=O)OCCOCCOC(=O)OC(C)C(=O)OC(C)C (configuration not stated)
inactive: [7] 96 % of control | [8] 100 % of control | [9] 100 % of control

Cc1cc(C)cc(OCCO)c1
inactive: dose: 100.0 mg/kg/injection, schedule: Q04DX002 (ip), vehicle: Klucel (hydroxypropylcellulose) (HPC) 97 % of control | dose: 200.0 mg/kg/injection, schedule: Q04DX002 (ip), vehicle: Klucel (hydroxypropylcellulose) (HPC) 102 % of control | dose: 400.0 mg/kg/injection, schedule: Q04DX002 (ip), vehicle: Klucel (hydroxypropylcellulose) (HPC) 91 % of control

CC1(C)N=C(N)N=C(N)N1c1ccccc1I
inactive: [10] 100 % of control | [11] 110 % of control | dose: 50.0 mg/kg/injection, schedule: Q01DX009 (ip), vehicle: Klucel (hydroxypropylcellulose) (HPC) 97 % of control

NC(=O)c1ccc[n+](CC(=O)NCc2ccc(Cl)cc2)c1
inactive: [1] 93 % of control

OCC1CCN1C(c1ccccc1)c1ccccc1 (configuration not stated)
inactive: [12] 93 % of control | [13] 86 % of control

O/N=C\c1cc[n+](CC[n+]2ccc(/C=N/O)cc2)cc1
inactive: dose: 100.0 mg/kg/injection, schedule: Q04DX002 (ip), vehicle: other 112 % of control

O=C1CCCc2ccc([N+](=O)[O-])cc21
inactive: [1] 96 % of control | [2] 87 % of control

C1COC(COCC2CO2)C1 (configuration not stated)
inactive: [14] 100 % of control | dose: 100.0 mg/kg/injection, schedule: Q04DX002 (ip), vehicle: saline 98 % of control and 100 % of control and 120 % of control | [1] 99 % of control | [15] 92 % of control | dose: 200.0 mg/kg/injection, schedule: Q04DX002 (ip), vehicle: saline 103 % of control and 109 % of control and 111 % of control | [2] 98 % of control | dose: 400.0 mg/kg/injection, schedule: Q01DX009 (ip), vehicle: saline 93 % of control | dose: 400.0 mg/kg/injection, schedule: Q04DX002 (ip), vehicle: saline 98 % of control and 102 % of control (2×) | [3] 105 % of control

Cc1cc(C)c(SC2c3ccccc3-c3ccccc32)c(C)c1
inactive: dose: 75.0 mg/kg/injection, schedule: Q01DX009 (ip), vehicle: saline with Tween-80 95 % of control | dose: 150.0 mg/kg/injection, schedule: Q01DX009 (ip), vehicle: saline with Tween-80 102 % of control | dose: 300.0 mg/kg/injection, schedule: Q01DX009 (ip), vehicle: saline with Tween-80 96 % of control

Nc1ccc(N)c2c1C(=O)c1cccc([N+](=O)[O-])c1C2=O
inactive: dose: 50.0 mg/kg/injection, schedule: Q01DX001 (ip), vehicle: carboxymethylcellulose (CMC) 101 % of control | [4] 97 % of control | [5] 95 % of control | [6] 95 % of control

CC(C)(C)SCCC(=O)NC1CCCCC1
inactive: dose: 50.0 mg/kg/injection, schedule: Q01DX009 (ip), vehicle: saline 90 % of control | [14] 95 % of control | [1] 106 % of control | [15] 93 % of control | [2] 101 % of control

O=C(CCl)Nc1ccc(S(=O)(=O)c2ccc([N+](=O)[O-])cc2)cc1
inactive: dose: 30.0 mg/kg/injection, schedule: Q01DX001 (ip), vehicle: saline 94 % of control | dose: 75.0 mg/kg/injection, schedule: Q01DX009 (ip), vehicle: saline 95 % of control | dose: 75.0 mg/kg/injection, schedule: Q04DX003 (ip), vehicle: saline 92 % of control | [7] 91 % of control | dose: 150.0 mg/kg/injection, schedule: Q01DX009 (ip), vehicle: saline 96 % of control | dose: 150.0 mg/kg/injection, schedule: Q04DX003 (ip), vehicle: saline 91 % of control | dose: 300.0 mg/kg/injection, schedule: Q01DX001 (ip), vehicle: saline 94 % of control | dose: 300.0 mg/kg/injection, schedule: Q01DX009 (ip), vehicle: saline 101 % of control | dose: 300.0 mg/kg/injection, schedule: Q04DX003 (ip), vehicle: saline 94 % of control

CCSC1OC(C(COC(C)=O)OC(C)=O)C(OC(C)=O)C1NC(C)=S (configuration not stated)
inactive: dose: 50.0 mg/kg/injection, schedule: Q01DX001 (ip), vehicle: saline 97 % of control | [7] 103 % of control | [8] 103 % of control | [9] 100 % of control

C=CCCCCCCCCC(=O)NCc1cccnc1
inactive: [16] 96 % of control | dose: 200.0 mg/kg/injection, schedule: Q01DX009 (ip), vehicle: saline with Tween-80 94 % of control | dose: 400.0 mg/kg/injection, schedule: Q01DX009 (ip), vehicle: saline with Tween-80 102 % of control

O=C(CBr)c1ccc(/C=C/c2ccc(Cl)cc2)cc1
inactive: [16] 94 % of control

COC(=O)CCC(=O)Nc1ccc(C(=O)CBr)cc1
inactive: dose: 6.25 mg/kg/injection, schedule: Q01DX009 (ip), vehicle: Klucel (hydroxypropylcellulose) (HPC) 98 % of control | [10] 96 % of control | dose: 12.5 mg/kg/injection, schedule: Q04DX003 (ip), vehicle: Klucel (hydroxypropylcellulose) (HPC) 97 % of control | [11] 102 % of control | dose: 25.0 mg/kg/injection, schedule: Q04DX003 (ip), vehicle: Klucel (hydroxypropylcellulose) (HPC) 96 % of control | dose: 35.0 mg/kg/injection, schedule: Q01DX009 (ip), vehicle: Klucel (hydroxypropylcellulose) (HPC) 95 % of control | dose: 55.0 mg/kg/injection, schedule: Q01DX009 (ip), vehicle: Klucel (hydroxypropylcellulose) (HPC) 93 % of control

NN1C(=O)c2c(Cl)c(Cl)c(Cl)c(Cl)c2C1=O
inactive: dose: 100.0 mg/kg/injection, schedule: Q01DX001 (ip), vehicle: saline with Tween-80 87 % of control | dose: 200.0 mg/kg/injection, schedule: Q01DX001 (ip), vehicle: saline with Tween-80 87 % of control | dose: 400.0 mg/kg/injection, schedule: Q01DX001 (ip), vehicle: saline with Tween-80 93 % of control

CCCCN(CCCC)CCP(=O)(OCC)OCC
inactive: [12] 97 % of control | [13] 105 % of control

CC(C)(C)NNC(=O)c1ccccc1
inactive: dose: 75.0 mg/kg/injection, schedule: Q04DX003 (ip), vehicle: saline with Tween-80 106 % of control

O=C1c2cc([N+](=O)[O-])ccc2-c2cc(Br)c(N=C(NO)C(F)(F)F)cc21
inactive: [4] 103 % of control | [5] 98 % of control | [6] 95 % of control

O=S1(=O)CCCCc2c1ccc1ccccc21
inactive: [7] 101 % of control | [8] 90 % of control | [9] 106 % of control

N#CC1(C#N)C(c2ccccc2)C1(C#N)C#N
inactive: dose: 6.25 mg/kg/injection, schedule: Q01DX009 (ip), vehicle: saline with Tween-80 107 % of control | dose: 6.25 mg/kg/injection, schedule: Q04DX003 (ip), vehicle: saline sonified 102 % of control | dose: 12.5 mg/kg/injection, schedule: Q01DX009 (ip), vehicle: saline with Tween-80 105 % of control | dose: 12.5 mg/kg/injection, schedule: Q04DX003 (ip), vehicle: saline sonified 113 % of control | dose: 25.0 mg/kg/injection, schedule: Q01DX009 (ip), vehicle: saline with Tween-80 105 % of control | dose: 25.0 mg/kg/injection, schedule: Q04DX003 (ip), vehicle: saline sonified 96 % of control
